Earlier results as cited in patent US7563896B2, “Process of obtaining type II dehydroquinase enzyme inhibitors and precursors thereof” (Universidade de Santiago de Compostela, priority 2003, dated 2009).

Tests used:
EPSP synthase = settings: sixth enzyme of the shikimic acid pathway, read-out: inhibition constant

Question: What does the source list for `O=C(O)CNCP(=O)(O)O` [Glyphosphate]?
Answer: Ki (EPSP synthase): ~1 µM; effectiveness against malaria (malaria): effective
